Test results as given in PubChem BioAssay (NCI).
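A five-concentration, 48-hour dose response in 96-well plates underlies each endpoint, interpolated linearly between surrounding concentrations. The concentration for 50% growth inhibition is given as GI50. TGI: total growth inhibition.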

Columns and labels:
Assay in all cases: NCI tumour cell line growth inhibition, 48 h
[1] = system: SK-MEL-2 melanoma
[2] = system: OVCAR-8 ovarian
[3] = system: IGROV1 ovarian
[4] = system: NCI-H23 lung
[5] = system: PC-3 prostate
[6] = system: MOLT-4 leukemia
[7] = system: SF-268 CNS
[8] = system: 786-0 renal
[9] = system: COLO 205 colon
[10] = system: RPMI-8226 leukemia

Compound: CCN1CCN(CCC(=O)Nc2cccc(-n3cc(-c4ccncc4)c(-c4ccc(Cl)c(OC)c4)n3)c2)CC1
- GI50 [1]: 1.11 µM
- TGI [1]: 2.55 µM
- GI50 [2]: 1.26 µM
- TGI [2]: 3.82 µM
- GI50 [3]: 1.09 µM
- TGI [3]: 5.18 µM
- GI50 [4]: 1.04 µM
- TGI [4]: 3.56 µM
- GI50 [5]: 0.448 µM
- TGI [5]: 2.02 µM
- GI50 [6]: 0.661 µM
- TGI [6]: 5.76 µM
- GI50 [7]: 0.663 µM
- TGI [7]: 2.43 µM
- GI50 [8]: 0.701 µM
- TGI [8]: 2.2 µM

Compound: CCN(CC)C(=O)CCn1ccc(=O)[nH]c1=O
- TGI [1]: > 100 µM
- TGI [2]: > 100 µM
- TGI [3]: > 100 µM
- TGI [9]: > 100 µM
- TGI [4]: > 100 µM
- TGI [6]: > 100 µM
- TGI [10]: > 100 µM
- TGI [7]: > 100 µM
- TGI [8]: > 100 µM

Compound: CC(C)(C)CC(C)(C)c1ccc(OCCO)cc1
- GI50 [1]: 8.07 µg/mL
- TGI [1]: 18.7 µg/mL
- GI50 [2]: 3.31 µg/mL
- TGI [2]: > 75 µg/mL
- GI50 [9]: 4.69 µg/mL
- TGI [9]: 15.4 µg/mL
- GI50 [4]: 1.33 µg/mL
- TGI [4]: 20.9 µg/mL
- GI50 [5]: 3.26 µg/mL
- TGI [5]: 16 µg/mL
- GI50 [6]: 3.41 µg/mL
- TGI [6]: > 75 µg/mL
- GI50 [10]: 1.9 µg/mL
- TGI [10]: 19.5 µg/mL
- GI50 [7]: 8.87 µg/mL
- TGI [7]: 27.3 µg/mL
- GI50 [8]: 10.9 µg/mL
- TGI [8]: 33.7 µg/mL

Compound: CC(=O)OC(C)(C)C1CC[C@]2(C)/C=C/C(C)C[C@@H](O)/C=C(\C)CC(O)C12 (stereo partly drawn)
- TGI [1]: > 100 µM
- TGI [2]: > 100 µM
- TGI [3]: > 100 µM
- TGI [9]: > 100 µM
- TGI [4]: > 100 µM
- TGI [6]: > 100 µM
- TGI [10]: > 100 µM
- TGI [7]: > 100 µM
- TGI [8]: > 100 µM

Compound: O=C(O)CN1CCSc2ccccc2CN(CC(=O)O)CCSc2ccccc2C1
- TGI [1]: > 100 µM
- TGI [2]: > 100 µM
- TGI [3]: > 100 µM
- TGI [9]: > 100 µM
- TGI [4]: > 100 µM
- TGI [10]: > 100 µM
- TGI [7]: > 100 µM
- TGI [8]: > 100 µM

Compound: C=C(Br)C(C)(Cl)CCC(Br)C(C)(C)Br (stereo not drawn)
- TGI [1]: 80.4 µM
- TGI [2]: > 100 µM
- TGI [3]: > 100 µM
- TGI [9]: > 100 µM
- TGI [4]: > 100 µM
- TGI [6]: 83.1 µM
- TGI [10]: 67 µM
- TGI [8]: > 100 µM

Compound: O=C([CH-]C(=O)c1ccccc1)c1ccccc1.O=C([CH-]C(=O)c1ccccc1)c1ccccc1.O=C([CH-]C(=O)c1ccccc1)c1ccccc1.[Ga+3]
- GI50 [1]: 43.8 µM
- TGI [1]: > 100 µM
- GI50 [2]: > 100 µM
- TGI [2]: > 100 µM
- GI50 [3]: 81.9 µM
- TGI [3]: > 100 µM
- GI50 [9]: > 100 µM
- TGI [9]: > 100 µM
- GI50 [4]: 47.4 µM
- TGI [4]: > 100 µM
- GI50 [6]: 13.3 µM
- TGI [6]: > 100 µM
- GI50 [10]: 27 µM
- TGI [10]: > 100 µM
- GI50 [7]: 35.1 µM
- TGI [7]: > 100 µM
- GI50 [8]: > 100 µM
- TGI [8]: > 100 µM

Compound: O=C(O)/C=C\C(=O)Nc1ccc2c(c1)-c1ccccc1C2
- TGI [1]: > 100 µM
- TGI [2]: > 100 µM
- TGI [3]: > 100 µM
- TGI [9]: > 100 µM
- TGI [4]: > 100 µM
- TGI [5]: > 100 µM
- TGI [10]: > 100 µM
- TGI [7]: > 100 µM
- TGI [8]: > 100 µM

Compound: O=C1C=C(Nc2ccccc2)c2ccccc2C1=O
- GI50 [2]: 2.71 µM
- TGI [2]: 12.8 µM
- GI50 [3]: 2.78 µM
- TGI [3]: 7.31 µM
- GI50 [9]: 1.96 µM
- TGI [9]: 3.61 µM
- GI50 [4]: 1.98 µM
- TGI [4]: 4.91 µM
- GI50 [6]: 2.87 µM
- TGI [6]: 9.47 µM
- GI50 [10]: 2.24 µM
- TGI [10]: 7.49 µM
- GI50 [7]: 2.67 µM
- TGI [7]: 8.71 µM
- GI50 [8]: 5.17 µM
- TGI [8]: 18.9 µM

Compound: CC(=O)C1(O)CC2(c3ccccc3)C(=O)C1(c1ccccc1)C(c1ccccc1)=C2c1ccccc1 (stereo not drawn)
- TGI [2]: > 100 µM
- TGI [3]: > 100 µM
- TGI [9]: > 100 µM
- TGI [4]: > 100 µM
- TGI [6]: > 100 µM
- TGI [10]: > 100 µM
- TGI [7]: > 100 µM
- TGI [8]: > 100 µM

Compound: O=C1CSC(c2c[nH]c3ccccc23)N1c1cccc(Cl)c1 (stereo not drawn)
- TGI [1]: 65.2 µM
- TGI [2]: > 100 µM
- TGI [3]: > 100 µM
- TGI [9]: > 100 µM
- TGI [4]: > 100 µM
- TGI [6]: > 100 µM
- TGI [10]: 54.7 µM
- TGI [7]: > 100 µM
- TGI [8]: 47.1 µM

Compound: O=C(CCc1nnc2s/c(=C\c3ccc([N+](=O)[O-])cc3)c(=O)n12)Nc1ccc(Cl)c(Cl)c1
- TGI [1]: 73.9 µM
- TGI [2]: 38.9 µM
- TGI [3]: 50 µM
- TGI [9]: 82.9 µM
- TGI [4]: 75.6 µM
- TGI [6]: 51.5 µM
- TGI [10]: 46.5 µM
- TGI [7]: 35.7 µM
- TGI [8]: 35.7 µM

Compound: CC(=O)N1C/C(=C\c2ccccc2)C(=O)/C(=C/c2ccccc2)C1
- TGI [1]: 56.6 µM
- TGI [2]: 24.4 µM
- TGI [3]: 37.4 µM
- TGI [9]: 33.9 µM
- TGI [4]: 41.3 µM
- TGI [6]: 23 µM
- TGI [10]: 4.79 µM
- TGI [7]: 66.1 µM
- TGI [8]: 30.2 µM

Compound: CC(C)(CN1CCCCC1)C(=O)/C=C/c1ccccc1
- TGI [1]: 28.9 µM
- TGI [2]: 49.5 µM
- TGI [3]: 86.6 µM
- TGI [9]: 40.9 µM
- TGI [4]: 33.7 µM
- TGI [6]: 41.4 µM
- TGI [10]: 38.3 µM
- TGI [7]: 36.8 µM
- TGI [8]: 27.3 µM

Compound: C/C(=N/NC(=O)c1ccccc1S(N)(=O)=O)C(CN1CCCCC1)C(C1=C(O)C2C=CC=CC2OC1=O)c1ccccc1 (stereo not drawn)
- TGI [1]: > 100 µM
- TGI [2]: > 100 µM
- TGI [3]: > 100 µM
- TGI [9]: 41.3 µM
- TGI [4]: > 100 µM
- TGI [10]: 79 µM
- TGI [7]: > 100 µM
- TGI [8]: > 100 µM

Compound: Cn1cc(C2NC(=O)c3ccccc3N2)c2ccccc21 (stereo not drawn)
- TGI [2]: > 100 µM
- TGI [3]: > 100 µM
- TGI [4]: > 100 µM
- TGI [5]: 0.408 µM
- TGI [7]: > 100 µM
- TGI [8]: > 100 µM

Compound: O=C(/C=C/c1ccccc1)NC1C=Nc2ccc([N+](=O)[O-])cc2NC1=O (stereo not drawn)
- TGI [1]: > 100 µM
- TGI [2]: > 100 µM
- TGI [3]: > 100 µM
- TGI [9]: > 100 µM
- TGI [4]: > 100 µM
- TGI [6]: > 100 µM
- TGI [7]: > 100 µM
- TGI [8]: > 100 µM

Compound: CCNC1=C(NC(=O)c2ccc(F)cc2)C(=O)c2ccccc2C1=O
- TGI [2]: > 100 µM
- TGI [3]: > 100 µM
- TGI [9]: > 100 µM
- TGI [4]: > 100 µM
- TGI [5]: > 100 µM
- TGI [6]: > 100 µM
- TGI [10]: > 100 µM
- TGI [7]: > 100 µM
- TGI [8]: > 100 µM

Compound: C[C@@H]1C(=O)CC2C(C)(C)CCC[C@]2(C)[C@@]12CC[C@]1(C=COC1)O2 (stereo partly drawn)
- TGI [1]: 44.3 µM
- TGI [2]: > 100 µM
- TGI [3]: > 100 µM
- TGI [9]: > 100 µM
- TGI [6]: 42.9 µM
- TGI [7]: > 100 µM
- TGI [8]: > 100 µM

Compound: Cc1c(C(Cc2ccccc2N(C)C(=O)/C=C\C(=O)O)c2c[nH]c3ccccc23)c2ccccc2n1C (stereo not drawn)
- TGI [2]: 29.4 µM
- TGI [3]: 39.8 µM
- TGI [9]: 29.6 µM
- TGI [4]: 32.8 µM
- TGI [6]: 53.8 µM
- TGI [7]: 35.9 µM
- TGI [8]: 35.9 µM

Compound: NC1=C(O)c2cccc3cccc(c23)C1=O
- TGI [1]: > 100 µM
- TGI [2]: > 100 µM
- TGI [3]: > 100 µM
- TGI [9]: > 100 µM
- TGI [4]: > 100 µM
- TGI [6]: > 100 µM
- TGI [10]: > 100 µM
- TGI [7]: > 100 µM
- TGI [8]: > 100 µM

Compound: Cc1cc(N(CCC#N)CCC#N)ccc1/C=C(\NC(=O)/C=C/c1ccccc1)C(=O)N=[N+]=[N-]
- TGI [1]: > 100 µM
- TGI [2]: > 100 µM
- TGI [3]: > 100 µM
- TGI [9]: > 100 µM
- TGI [4]: > 100 µM
- TGI [6]: > 100 µM
- TGI [10]: > 100 µM
- TGI [7]: > 100 µM
- TGI [8]: > 100 µM
